In US7094789B2, “5-substituted isoquinoline derivatives” (Asahi Kasei Pharma Corporation, priority 2002, dated 2006):
Structures can show the parent of a compound that is named as a salt.

Tests used:
[1] = tested on: intraocular pressure; experiment: Intraocular pressure reducing action (Test Example 4); assay type: in vivo, Japanese white rabbit; details: for intraocular pressure reducing activity: result in words, rabbit; for inhibition in vivo at 1 %, 50 µL: Oryctolagus cuniculus, topical, 1% aqueous solution, 50 μl dropped to the left eye, after 2 hours, read-out: Intraocular pressure reducing action (reduction ratio) (%)
Experimental: A Japanese white rabbit having a body weight of about 2 kg was placed in a positioner and naturalized for one week before the experiment. An ophthalmologic local anesthesant (Benoxil) was administered to the left eye, and then intraocular pressure was measured by using a tonometer (Classic 30, Solan). The initial value of the intraocular pressure was measured, then 50 μl of a test compound (1% aqueous solution) was dropped to the left eye, and after 2 hours, the intraocular pressure was measured. The intraocular pressure reducing action of the test compounds is shown in Table 7 mentioned below as ratios (%) of reduction of intraocular pressure based on the initial value of the intraocular pressure.

[2] = tested on: thoracic aorta constricted with phenylephrine; experiment: Vasoconstriction inhibitory action (Test Example 2); design: species or system Rats (Wistar); details: result in words; rat thoracic aorta, phenylephrine
Text: Rats (Wistar, 11-week old) were bleeded to death and laparotomized to take out the thoracic aorta. That aorta was cut into a ring of a length of about 3 mm in a conventional manner (Asano, T., et al., J. Pharmacol. Exp. Ther., 241, pp. 1033–1040 (1987)) and hung in 10-ml organ bath filled with Krebs-Hensright nutrient solution bubbled with a mixed gas of 95% O2 and 5% CO2. One end of the blood vessel was connected to an isometric transducer (FD Pickup TB-912T, Nihon Kohden) and applied with 2.5 g of resting tension, and constriction and relaxation reactions of the aorta were recorded. The aorta was constricted with phenylephrine (1 μM, Sigma) and then added with a test compound (1 μM), and the vasoconstriction inhibitory action thereof was observed. The vasoconstriction inhibitory actions of the test compounds are shown in Table 6 mentioned below as the relaxation ratios, which are based on the vasoconstriction with phenylephrine immediately before the addition of the test compound taken as 100%.

[3] = tested on: ovalbumin-induced constriction of respiratory tract; experiment: Respiratory tract constriction suppression action (Test Example 3); assay type: in vivo, Hartley guinea pigs; details: ovalbumin-immunized guinea pigs; test medicament via hind leg vein; 15 minutes after administration
Experimental: Four-week old Hartley guinea pigs (male) were immunized by intraperitoneal administration of ovalbumin (Sigma, Grade V) in amounts of 1 mg for each animal on the day on which the experiment was started, 3 mg for each animal after 2 days, and 10 mg for each animal after 4 days. Twelve to fourteen days after the final immunization, the ovalbumin-immunized guinea pigs were anesthetized by intraperitoneal administration of about 40 mg/kg of pentobarbital (Somnopentyl), and the tracheas were taken out. Subsequently, a cannula (SP-110, Natsume) was inserted into each trachea, and one end of the cannula was connected to an artificial respirator (Model-b83, Harvard). The aeration conditions were set at 6 ml per kilogram and 60 times per 1 minute. Further, a cannula for medicament administration (JMS wing needle 23G 3/4) was inserted into a hind leg vein. Myoblock (Organon Technica) was administered in an amount of 0.5 mg/kg from the cannula inserted into the hind leg vein to stop the spontaneous breathing, and after 2 or 3 minutes, 0.3 mg/kg of ovalbumin was administered to induce constriction of respiratory tract. The increase of airway resistance value 2 minutes after the induction (measurement apparatuses: pressure transducer TR-603T, respiratory amplifier AR-601G, and recorder RTA-3100, Nihon Kohden Corp.) was confirmed to be above 80 cm H2O or higher, and then, a solution of a test medicament was administered from the cannula inserted into the hind leg vein, and the airway resistance value was continuously measured for 15 minutes after the administration to determine the effect.

[4] = molecular target: T1, myosin light chain phosphorylation enzyme (MLCK) (Gallus gallus, UniProt P11799); experiment: Action on myosin light chain phosphorylation enzyme (MLCK) activity; assay type: biochemical, chicken; details: for IC50: MLCK from chicken gizzard smooth muscle, ELISA, 100 μM ATP, read-out: Myosin light chain phosphorylation enzyme inhibitory action IC50; for inhibition of MLCK: result in words
T1 construct: purified from chicken gizzard smooth muscle by a conventional method; from tissue; host or cells: chicken gizzard smooth muscle
Experimental: A myosin light chain phosphorylation enzyme (MLCK) was purified from chicken gizzard smooth muscle by a conventional method (Yoshida, M., et al., J. Biochem., 99, 1027–1036 (1986)). The myosin regulatory light chain as a substrate was purified from the chicken gizzard smooth muscle by a conventional method (Grand, R. J., et al., Biochem. J., 211, 267–272 (1983)). The MLCK activity was measured by ELISA using pLC1 described in Test Example 1 (Sakurada, K., et al., J. Biochem., 115, 18–21 (1994)). The myosin regulatory light chain was diluted in phosphate-buffered saline (PBS, Sigma) to a concentration of 5.0 µg/ml, added to 96-well Immunoplate (Nunc) in a volume of 100 μl per well and left stand overnight at 4° C. Each well was washed with PBS, and 25 mM Tris/HCl buffer containing 100 μM ATP, 3 mM MgCl2, 1 mM CaCl2, 100 ng/ml of calmodulin (Sigma) and 100 ng/ml of MLCK (pH 7.4, Buffer A) was added to each well and incubated at 30° C. for 10 minutes. In a volume of 100 μl each of 20% aqueous phosphoric acid solution was added to each well to terminate the enzymatic reaction. Each well was washed with 25 mM Tris/HCl buffer (TTBS) containing 0.1% Tween 20, and then 100 μl each of pLC1 described in Test Example 1 was added to each well and incubated at room temperature for 90 minutes.
Each well was washed with TTBS, and then 100 μl of the HRP-labeled rabbit anti-mouse IgG antibodies (Bio-Rad) were added to each well and incubated at room temperature for 90 minutes. Each well was washed with TTBS, and then 25 mM citrate buffer (pH 5.0) containing orthophenylenediamine (Sigma) as a substrate of HRP and aqueous hydrogen peroxide (0.03%) was added in a volume of 100 μl per well and incubated at room temperature for 5 minutes. 50 μl of 4 N sulfuric acid was added to each well to terminate the reaction, and then absorbance was measured by using an immunoplate reader (Bio-Rad).

[5] = tested on: OVA-induced respiratory tract inflammation; experiment: Respiratory tract inflammation suppressing action (Test Example 6); assay type: in vivo, BALB/c female mice; details: result in words; OVA mice
Experimental: According to the method described in Henderson, W. R., et al., Am. J. Respir. Cric. Care Med., 165(1), 108–116 (2002), suppressing action on bronchial inflammation was confirmed. BALB/c female mice (7-week old) were used for the test, each group consisting of 7 mice, and the control group consisting of 11 or 12 mice. The mice were intraperitoneally administered with ovalbumin (OVA, 100 ng, Sigma) and 1 mg of aluminum hydroxide for initial immunization, and after 2 weeks, they are subcutaneously administered with 10 ng of OVA as additional immunization. After further 1 week, a test compound was dissolved in water containing 0.5% carboxymethylcellulose and orally administered (30 mg/kg) to the test animals once a day for 5 days. The control group was similarly given only with water containing 0.5% carboxymethylcellulose. After 1 hour, the mice were orally inhaled with 2% OVA for 10 minutes to induce a respiratory tract inflammation. […] After 24 hours, alveoli in the lungs of the test animals were washed with physiological saline, and the total infiltrated white blood cells (WBC) were counted.

SMILES	intraocular pressure reducing activity [1]	vasoconstriction inhibitory action [2]	constriction of respiratory tract (airway resistance value) [3]	IC50 [4]	inhibition in vivo at 1 %, 50 µL [1]	inhibition of MLCK [4]	infiltrated white blood cell number [5]
Cc1cncc2cccc(NC3CCN(CCO)CC3)c12.Cl [Example 146, 1-(2-Hydroxyethyl)-4-(4-methyl-5-isoquinolyl)aminopiperidine hydrochloride]	significant intraocular pressure reducing activity	significant vasoconstriction inhibitory action	significantly improved the constriction of respiratory tract	–	–	–	–
Cl.NCCCN(CCc1cccs1)S(=O)(=O)c1cccc2cnccc12 [Example 2, N-[(5-Isoquinolyl)sulfonyl]-N-[2-(2-thienyl)ethyl]-1,3-propylenediamine hydrochloride]	–	significant vasoconstriction inhibitory action	significantly improved the constriction of respiratory tract	> 50 µM	–	–	–
Cc1cncc2cccc(NC3CCNCC3)c12.Cl [Example 106, 4-(4-Methyl-5-isoquinolyl)aminopiperidine hydrochloride]	–	significant vasoconstriction inhibitory action	significantly improved the constriction of respiratory tract	–	31.3%	did not inhibit MLCK	decrease of infiltrated white blood cell number
Cl.N[C@H]1CC[C@H](Oc2cccc3cncc(Br)c23)CC1 [Example 133, Trans-4-[(4-bromo-5-isoquinolyl)oxy]cyclohexylamine hydrochloride]	significant intraocular pressure reducing activity	–	significantly improved the constriction of respiratory tract	–	–	–	–
Cl.Clc1cncc2cccc(NC3CCNCC3)c12 [Example 118, 4-(4-Chloro-5-isoquinolyl)aminopiperidine hydrochloride]	–	–	significantly improved the constriction of respiratory tract	–	25%	–	–
Cl.NCCN(CCS(=O)(=O)c1ccccc1)S(=O)(=O)c1cccc2c(O)nccc12 [Example 12, N-[(1-Hydroxy-5-isoquinolyl)sulfonyl]-N-[2-(phenylsulfonyl)ethyl]ethylenediamine hydrochloride]	–	significant vasoconstriction inhibitory action	significantly improved the constriction of respiratory tract	–	13.3%	–	–
Cl.OCCN1CCC(Nc2cccc3cnccc23)CC1 [Example 144, 1-(2-Hydroxyethyl)-4-(5-isoquinolyl)aminopiperidine hydrochloride]	significant intraocular pressure reducing activity	–	significantly improved the constriction of respiratory tract	–	–	did not inhibit MLCK	–
Cl.c1cc(NC2CCNCC2)c2ccncc2c1 [Example 20, 4-(5-Isoquinolyl)aminopiperidine hydrochloride]	–	–	significantly improved the constriction of respiratory tract	> 100 µM	35.7%	–	–
Cc1cncc2cccc(O[C@H]3CC[C@H](N)CC3)c12.Cl [Example 140, Trans-4-[(4-methyl-5-isoquinolyl)oxy]cyclohexylamine hydrochloride]	significant intraocular pressure reducing activity	significant vasoconstriction inhibitory action	significantly improved the constriction of respiratory tract	–	–	–	–
Cc1cncc2cccc(N[C@H]3CC[C@H](N)CC3)c12.Cl [Example 121, Trans-N-(4-methyl-5-isoquinolyl)-1,4-cyclohexanediamine hydrochloride]	–	significant vasoconstriction inhibitory action	significantly improved the constriction of respiratory tract	–	31.3%	–	–
Cl.Nc1nccc2c(OCC3CCCNC3)cccc12 (centres unmarked) [Example 11, 3-[(1-Amino-5-isoquinolyl)oxy]methylpiperidine hydrochloride]	–	–	significantly improved the constriction of respiratory tract	–	–	–	–
c1cc(NC2CCCNC2)c2ccncc2c1 (racemic) [Example 29, 3-N-(5-Isoquinolyl)aminopiperidine hydrochloride]	–	–	significantly improved the constriction of respiratory tract	–	–	–	–
